This assay concerns HCV (Ib) RNA replication. The experiment in a line: Cell-based luciferase reporter HCV (1b) RNA replication assay (replicon cell lines Huh-7 5.2 and ET). The following applies: Hepatitis C virus, Huh-7, 96 h, HCV 1b genotype replicon, luciferase readout, 4 days incubation; read-out: EC50_1b. Further details: species or system Hepatitis C virus. The text has this:
Cell-Based Luciferase Reporter HCV (Ib) RNA Replication Assay Cell Culture
Replicon cell lines Huh-7, 5.2 and ET which are derived from the Huh-7 hepatocarcinoma cell line are maintained in culture as generally described in Krieger, N; Lohmann, V; Bartenschlager, R. Enhancement of hepatitis C virus RNA replication by cell culture-adaptive mutations. J. Virol. 2001, 75, 4614-4624. The Huh-7, 5.2 cells contain the highly cell culture-adapted replicon I389luc-ubi-neo/NS3-3′/5.1 construct that carries, in addition to the neomycin gene, an integrated copy to the firefly luciferase gene (Krieger, N; Lohmann, V; Bartenschlager, R. Enhancement of hepatitis C virus RNA replication by cell culture-adaptive mutations. J. Virol. 2001, 75, 4614-4624). This cell line allows measurement of HCV RNA replication and translation by measuring luciferase activity. It has been previously shown that the luciferase activity tightly follows the replicon RNA level in these cells (Krieger, N; Lohmann, V; Bartenschlager, R. Enhancement of hepatitis C virus RNA replication by cell culture-adaptive mutations. J. Virol. 2001, 75, 4614-4624). The Huh-7, ET cell line has the same features as those mentioned for Huh-7, 5.2 cell line, except that ET cells are more robust and contain an adaptative mutation in the HCV NS4B gene instead of NS5A. Both cell lines are maintained in cultures at a sub-confluent level (<85%) as the level of replicon RNA is highest in actively proliferating cells. The culture media used for cell passaging consist of DMEM (Gibco BRL Laboratories, Mississauga, ON, Canada) supplemented with 10% foetal bovine serum with 1% penicillin/streptomycin, 1% glutamine, 1% sodium pyruvate, 1% non-essential amino acids, and 180 ug/ml of G418 final concentration. Cells are incubated at 37° C., in an atmosphere of 5% CO2 and passaged twice a week to maintain sub-confluence.
Approximately 3000 viable Huh-7, 5.2 or ET cells (100 μl) are plated per well in a white opaque 96-well microtiter plate. The cell culture media used for the assay is the same as described above except that it contains no G418 and no phenol red. After an incubation period of 3-4 hours at 37° C. in a 5% CO2 incubator, compounds (100 μl) are added at various concentrations. Cells are then further incubated for 4 days at 37° C. in a 5% CO2 incubator. Thereafter, the culture media is removed and cells are lysed by the addition of 95 μL of the luciferase buffer (luciferin substrate in buffered detergent). Cell lysates are incubated at room temperature and protected from direct light for at least 10 minutes. Plates are read for luciferase counts using a luminometer (Wallac MicroBeta Trilux, Perkin ELmer™, MA, USA).
The 50% inhibitory concentrations (IC50s) for inhibitory effect are determined from dose response curves using eleven concentrations per compound in duplicate. Curves are fitted to data points using nonlinear regression analysis, and IC50s are interpolated from the resulting curve using GraphPad Prism software, version 2.0 (GraphPad Software Inc., San Diego, Calif., USA).
Table 2 show compounds representative of the present invention and the EC50 values against the HCV 1b genotype.
For `COC(=O)N[C@H](C(=O)N1CCC[C@H]1c1nc2cc(-c3c(F)cc(-c4ccc5nc([C@@H]6CCCN6C(=O)[C@@H](NC(=O)OC)C(C)C)[nH]c5c4)cc3F)ccc2[nH]1)C(C)C` [Compound 143], the EC50 was at most 5 nM.
Then `COC(=O)N[C@@H](C(=O)N1CC[C@H]1c1nc2cc(C#Cc3ccc4[nH]c([C@@H]5CCN5C(=O)[C@H](NC(=O)OC)C(C)C)nc4c3)ccc2[nH]1)C(C)C` [Compound 73], with at most 5 nM; and `COC(=O)N(C)[C@H](C(=O)N1C[C@@H](C)C[C@H]1c1nc2cc(-c3ccc(-c4ccc5[nH]c([C@@H]6C[C@H](C)CN6C(=O)[C@H](C(C)C)N(C)C(=O)OC)nc5c4)cc3)ccc2[nH]1)C(C)C` [Compound 247], with at most 5 nM.
Consider `COC(=O)N[C@H](C(=O)N1[C@@H](C)CC[C@H]1c1nc2cc(C#CC#Cc3ccc4[nH]c([C@@H]5CC[C@H](C)N5C(=O)[C@@H](NC(=O)OC)C(C)C)nc4c3)ccc2[nH]1)C(C)C` [Compound 324], for which the EC50 was at most 5 nM.
For `COC(=O)N[C@H](C(=O)N1C[C@@H](C)C[C@H]1c1nc2cc(-c3ccc(-c4ccc5nc([C@@H]6CCCN6C(=O)[C@@H](NC(=O)OC)C(C)C)n(C)c5c4)cc3)ccc2[nH]1)C(C)C` [Compound 271] the value was at most 5 nM; for `COC(=O)N[C@H](C(=O)N1CCC[C@H]1c1nc2cc(C#Cc3ccc4nc([C@@H]5CCCN5C(=O)[C@@H](NC(=O)OC)C5CCCCC5)[nH]c4c3)ccc2[nH]1)C(C)C` [Compound 115], at most 5 nM.
Take `COC(=O)N[C@H](C(=O)N1CCC[C@H]1c1nc2ccc(-c3cnc(-c4ccc5nc([C@@H]6CCCN6C(=O)[C@@H](NC(=O)OC)C(C)C)[nH]c5c4)n3C)cc2[nH]1)C(C)C` [Compound 200]: the EC50 is 5 to 5000 nM.
For `CC(C)(NC(=O)OCc1ccccc1)C(=O)N1CCC[C@H]1c1nc2cc(C#Cc3ccc4[nH]c([C@@H]5CCCN5C(=O)C(C)(C)NC(=O)OCc5ccccc5)nc4c3)ccc2[nH]1` [Compound 88] the value was 5 to 5000 nM; for `O=C(OCc1ccccc1)N1CCCC[C@H]1c1nc2cc(C#CC#Cc3ccc4[nH]c([C@@H]5CCCCN5C(=O)OCc5ccccc5)nc4c3)ccc2[nH]1` [Compound 41, (S)-2-(5-{4-[2-((S)-1-Benzyloxycarbonyl-piperidin-2-yl)-1H-benzoimidazol-5-yl]-buta-1,3-diynyl}-1H-benzoimidazol-2-yl)-piperidine-1-carboxylic acid benzyl ester], 5 to 5000 nM.
For `COC(=O)N[C@H](C(=O)N1CC[C@@H](O)[C@H]1c1nc2ccc(-c3ccc(-c4ccc5nc([C@@H]6[C@H](O)CCN6C(=O)[C@@H](NC(=O)OC)C(C)C)[nH]c5c4)cc3)cc2[nH]1)C(C)C` [Compound 235] the value was at most 5 nM; for `COC(=O)N[C@H](C(=O)N1CCC[C@H]1c1nc2cc(C#Cc3ccc4nc([C@@H]5CCCN5C(=O)NC5CCCCC5)[nH]c4c3)ccc2[nH]1)C(C)C` [Compound 123], 5 to 5000 nM; for `COC(=O)N[C@H](C(=O)N1CCC[C@H]1c1nc2cc(-c3ccc(-c4ccc5[nH]c([C@@H]6CCCN6C(=O)[C@@H](NC(=O)OC)C(C)C)nc5c4)c(C#N)n3)ccc2[nH]1)C(C)C` [Compound 11, ((S)-1-{(S)-2-[5-(2-Cyano-6-{2-[(S)-1-((S)-2-methoxycarbonylamino-3-methyl-butyryl)-pyrrolidin-2-yl]-1H-benzoimidazol-5-yl}-pyridin-3-yl)-1H-benzoimidazol-2-yl]-pyrrolidine-1-carbonyl}-2-methyl-propyl)-carbamicacid methyl ester], 5 to 5000 nM.
For `CC(C)CCN1CCC[C@H]1c1nc2cc(C#Cc3ccc4[nH]c([C@@H]5CCCN5CCC(C)C)nc4c3)ccc2[nH]1` [Compound 135] the value was 5 to 5000 nM; for `COC(=O)N[C@H](C(=O)N1C[C@@H](C)C[C@H]1c1nc2cc(-c3ccc(-c4ccc5[nH]c([C@@H]6C[C@H](C)CN6C(=O)[C@@H](Nc6ncccn6)C(C)C)nc5c4)cc3)ccc2[nH]1)C(C)C` [Compound 262], at most 5 nM; for `COC(=O)N[C@H](C(=O)N1CCOC[C@H]1c1nc2cc(-c3ccc(-c4ccc5nc([C@@H]6COCCN6C(=O)[C@@H](NC(=O)OC)C(C)C)[nH]c5c4)cc3)ccc2[nH]1)C(C)C` [Compound 168], at most 5 nM.
Turning to `COC(=O)N1CCC[C@H]1C(=O)N1C[C@@H](C)C[C@H]1c1nc2cc(-c3ccc(-c4ccc5[nH]c([C@@H]6C[C@H](C)CN6C(=O)[C@@H]6CCCN6C(=O)OC)nc5c4)cc3)ccc2[nH]1` [Compound 287], the EC50 was at most 5 nM.
Then `COC(=O)N[C@H](C(=O)N1CCC[C@H]1c1nc2cc(-c3ccc(-c4ccc5nc([C@@H]6CCCN6C(=O)[C@@H](NC(=O)OC)C(C)C)[nH]c5c4)cc3NC(C)=O)ccc2[nH]1)C(C)C` [Compound 164], with at most 5 nM.
For `COC(=O)N[C@H](C(=O)N1CCC[C@H]1c1nc2cc(-c3csc(-c4ccc5[nH]c([C@@H]6CCCN6C(=O)[C@@H](NC(=O)OC)C(C)C)nc5c4)n3)ccc2[nH]1)C(C)C` [Compound 159] the value was at most 5 nM; for `COC(=O)N[C@H](C(=O)N1CCC[C@H]1c1nc2cc(-c3ccc(-c4ccc5[nH]c([C@@H]6CCCN6C(=O)[C@@H](NC(=O)OC)[C@@H](C)OC)nc5c4)c(C)c3)ccc2[nH]1)[C@@H](C)OC` [Compound 207], at most 5 nM; for `COC(=O)N(C)[C@H](C(=O)N1C[C@@H](C)C[C@H]1c1nc2cc(-c3ccc(-c4ccc5[nH]c([C@@H]6C[C@H](C)CN6C(=O)[C@H](C(C)C)N(C)C(=O)OC)nc5c4)c4nsnc34)ccc2[nH]1)C(C)C` [Compound 299], at most 5 nM.
Then `COC(=O)N(C)[C@H](C(=O)N1CCC[C@H]1c1nc2cc(C#Cc3ccc4nc([C@@H]5CCCN5C(=O)[C@H](C(C)C)N(C)C(=O)OC)[nH]c4c3)ccc2[nH]1)C(C)C` [Compound 63], with at most 5 nM.
In the case of `COC(=O)N[C@H](C(=O)N1C(C)CC[C@H]1c1nc2cc(-c3ccc(-c4ccc5[nH]c([C@@H]6CCC(C)N6C(=O)[C@H](C(C)C)N(C)C(=O)OC)nc5c4)cc3)ccc2[nH]1)C(C)C` (some centres unmarked) [Compound 301], the EC50 is at most 5 nM.
For the molecule `COC(=O)N[C@H](C(=O)N1CCC[C@H]1c1nc2cc(-c3nc(C)c(-c4ccc5[nH]c([C@@H]6CCCN6C(=O)[C@@H](NC(=O)OC)C(C)C)nc5c4)s3)ccc2[nH]1)C(C)C` [Compound 214], the EC50 was at most 5 nM.
For `COC(=O)N(C)[C@H](C(=O)N1C[C@@H](C)C[C@H]1c1nc2ccc(-c3ccc(-c4ccc5nc([C@@H]6C[C@H](C)CN6C(=O)[C@H](C(C)C)N(C)C(=O)OC)n(C)c5c4)cc3)cc2n1C)C(C)C` [Compound 295] the value was at most 5 nM.
`CCCCc1cc(-c2ccc3[nH]c([C@@H]4CCCN4C(=O)[C@@H](NC(=O)OC)C(C)C)nc3c2)sc1-c1ccc2[nH]c([C@@H]3CCCN3C(=O)[C@@H](NC(=O)OC)C(C)C)nc2c1` [Compound 157]: the EC50 was at most 5 nM.
`COC(=O)N[C@H](C(=O)N1CCC[C@H]1c1nc2cc(-c3ccc(-c4ccc5nc([C@@H]6CCCN6C(=O)[C@@H](NC(=O)OC)C(C)C)[nH]c5c4)cc3C#N)ccc2[nH]1)C(C)C` [Compound 5, ((S)-1-{(S)-2-[5-(2-Cyano-4-{2-[(S)-1-((S)-2-methoxycarbonylamino-3-methyl-butyryl)-pyrrolidin-2-yl]-1H-benzoimidazol-5-yl}-phenyl)-1H-benzoimidazol-2-yl]-pyrrolidine-1-carbonyl}-2-methyl-propyl)-carbamic acid methyl ester]: the EC50 is at most 5 nM.
For `COC(=O)N[C@@H](C(=O)N1CC[C@H]1c1nc2cc(C#CC#Cc3ccc4[nH]c([C@@H]5CCN5C(=O)[C@H](NC(=O)OC)C(C)C)nc4c3)ccc2[nH]1)C(C)C` [Compound 102] the value was at most 5 nM.
For `COC(=O)N[C@H](C(=O)N1C[C@@H](C)C[C@H]1c1nc2cc(-c3sc4c(C)c(-c5ccc6[nH]c([C@@H]7C[C@H](C)CN7C(=O)[C@@H](NC(=O)OC)C(C)C)nc6c5)sc4c3C)ccc2[nH]1)C(C)C` [Compound 331] the value was at most 5 nM.
For `COC(=O)N[C@H](C(=O)N1CCC[C@H]1c1nc2cc(-c3cnc(-c4ccc5[nH]c([C@@H]6CCCN6C(=O)[C@@H](NC(=O)OC)C(C)C)nc5c4)s3)ccc2[nH]1)C(C)C` [Compound 176], the EC50 lay within 5 to 5000 nM.

These data come from patent US8354419B2, “Benzimidazole analogues for the treatment or prevention of flavivirus infections” (Vertex Pharmaceuticals Incorporated, priority 2009, dated 2013).
